Data from US10596169B2, “Cancer treatment with combination of plinabulin and taxane” (BeyondSpring Inc., priority 2013, dated 2020).
Marks after values point to notes of the source that are not given here.

How the values were obtained:
[1] = mouse, in vivo
Experimental: (§1) Female nude mice (Hsd: Athymic Nude-Foxn1^nu) between 5 and 6 weeks of age weighing approximately 20 grams were obtained from Harlan, Inc. (Madison, Wis.). MV522 is a conventional human NSC metastatic lung tumor cell line (U.S. Pat. No. 7,700,615 or 7,629,380). Animals were injected subcutaneously (SC) with approximately 1×10^7 MV522 cells harvested from tissue culture. When tumors grew to approximately 105 cubic millimeters (mm^3) in size (3 days following implantation), animals were pair-matched by tumor size into treatment and control groups; each treatment group contained eight mice. Animals were ear-tagged and followed individually throughout the experiment.
(§2) Initial doses were administered on Day 1 following pair-matching. The experiment was carried out as a tumor growth inhibition (TGI) and tumor growth delay (TGD) study. Group 1 endpoint was when tumor volume reached 1.2 cm^3 (TGI) and the treated groups endpoint was when each individual animal's tumor volume reached 1.5 cm^3 (TGD). […] To serve as negative controls, NPI-2358 vehicle and docetaxel vehicle were injected IP on a 2×WKLY×3 schedule and IV on a Q2D×3 schedule, respectively. Docetaxel was administered by intravenous (IV) injection via tail vein at 15 mg/kg once every other day for three treatments (Q2D×3) or at 25 mg/kg on a Q7D×3 schedule (every 7 day for three treatment). Docetaxel and docetaxel vehicle were administered two hours prior to NPI-2358 vehicle and NPI-2358, respectively, in Groups 7-9 and 12-14. For Groups 10, 11, 15, and 16, NPI-2358 was given two hours prior to docetaxel.
Individual and group mean weights ±SD and percent weight change were recorded twice weekly until study completion beginning Day 1. Group weights on Day 42 and weight nadir values are reported.
Animals were observed twice weekly for general moribundity and daily for mortality.

[2] = tested on: MV522 human non-small cell lung tumor xenograph model; test: Example 1: MV522 xenograft, NPI-2358 single agent and with docetaxel (TGI/TGD); assay type: in vivo, athymic nu/nu mice; conditions: for MDS day ± SD: endpoint 1.5 cm^3
Experimental: In vivo evaluation of plinabulin (NPI-2358) as a single agent and in combination with docetaxel in the MV522 human non-small cell lung tumor xenograph model in athymic nu/nu mice
The objective of the example was to determine potential additive or synergistic effects of plinabulin in combination with docetaxel in the MV522 model by exploring the scheduling of the drug combination explored by administering one of the agents 2 hours after the first drug was given. Significant endpoints for this experiment included mean tumor growth inhibition (TGI) or regression, tumor growth delay (TGD) in large tumor, weight loss, and mortality.
as §1, §2
Mice were weighed and caliper tumor measurements taken. Tumor growth inhibition (TGI) values were calculated for each group containing treated animals using the formula below: […]
Animals experiencing complete tumor responses or animals experiencing technical or drug-related deaths were censored from final TGI calculations; however animals experiencing partial tumor responses were included in the final TGI calculations. […] TGI values for each treatment group are reported at study completion; these calculations are based on the final study day.
This arm of the study was ended on Day 74 at the sponsor's request. […] Upon TGD study completion, a Median Day of Sacrifice (MDS) was calculated for the control (C) and each treatment (T) group and used to determine tumor growth delay (T-C) using the following equations: MDS=Median [ΣIDS] T−C=MDSTreated−MDSControl
Where IDS (Individual Day of Sacrifice) is the day when each animal reached its tumor volume endpoint (1.5 cm^3); only animals reaching this endpoint were included in TGD calculations. Gross or net log10 cell kill for each treatment group was determined using the following equations: […]

[3] = G7: docetaxel 15 mg/kg IV Q2Dx3 + NPI-2358 vehicle
[4] = G12: docetaxel 25 mg/kg IV Q7Dx3 + NPI-2358 vehicle

Which results are given for `CC(=O)O[C@@]12CO[C@@H]1C[C@H](O)[C@@]1(C)C(=O)[C@H](O)C3=C(C)[C@@H](OC(=O)[C@H](O)[C@@H](NC(=O)OC(C)(C)C)c4ccccc4)C[C@@](O)([C@@H](OC(=O)c4ccccc4)[C@H]21)C3(C)C` [Docetaxel, docetaxel]?
Animal weight loss [1]: significant animal weight loss was observed; #CR (Day 25) [2, 3]: 0/0; #CR (TGD study) [2, 3]: 0/0; #LTS (long-term survivors) [2, 3]: 0; #PR (Day 25) [2, 3]: 0/0; #PR (TGD study) [2, 3]: 0/0; % TGI [2, 3]: 88%; Final tumor volume (Day 25) mean ± SEM [2, 3]: 259 ± 45 mm^3; Log10 cell kill [2, 3]: 0.4; T-C (tumor growth delay) [2, 3]: 16; MDS day ± SD [2, 3]: 45 ± 9 days; #CR (Day 25) [2, 4]: 0; #CR (TGD study) [2, 4]: 0/0; #LTS (long-term survivors) [2, 4]: 2; #PR (Day 25) [2, 4]: 8; #PR (TGD study) [2, 4]: 0/0; % TR (Day 25) [2, 4]: 58%; Activity rating [2, 4]: + (1.0-1.9); Final tumor volume (Day 25) mean ± SEM [2, 4]: 43 ± 4 mm^3; Log10 cell kill [2, 4]: 1.0; T-C (tumor growth delay) [2, 4]: 39; MDS day ± SD [2, 4]: 68 ± 6 days; % TGI ([2]; G12: docetaxel 25 mg/kg IV Q7Dx3 + NPI-2358 vehicle, value includes tumors with PR): 107^† %; Tumor volume / tumor burden compared to vehicle control ([2]; single agent, Example 1): strong decrease in tumor burden
